Patent publication US20160296499A1, “Spiroindoline Antiparasitic Derivatives” (ZOETIS SERVICES LLC, priority 2013, published 2016)
Where two headings read alike, the source gives them in different places.

Columns and labels:
[1] = test system: Haemonchus contortus L3; assay: Haemonchus contortus, Larvae Stage 3 (HcL3) In Vitro Assay; details: Haemonchus contortus
[2] = test system: Dirofilaria immitis microfilariae; assay: Dirofilaria immitis, Microfilariae (DiMF) In Vitro Assay; details: Dirofilaria immitis
[3] = biological target: T1, bovine vesicular acetylcholine transporter (VAChT) (Bos taurus, UniProt E1BK36); assay: Radioligand Binding Assay; details: Bovine binding Ki, CHO-K1 membranes with recombinant bovine VAChT, [3H]Compound X6 0.3 nM
T1 sequence (E1BK36 1-524): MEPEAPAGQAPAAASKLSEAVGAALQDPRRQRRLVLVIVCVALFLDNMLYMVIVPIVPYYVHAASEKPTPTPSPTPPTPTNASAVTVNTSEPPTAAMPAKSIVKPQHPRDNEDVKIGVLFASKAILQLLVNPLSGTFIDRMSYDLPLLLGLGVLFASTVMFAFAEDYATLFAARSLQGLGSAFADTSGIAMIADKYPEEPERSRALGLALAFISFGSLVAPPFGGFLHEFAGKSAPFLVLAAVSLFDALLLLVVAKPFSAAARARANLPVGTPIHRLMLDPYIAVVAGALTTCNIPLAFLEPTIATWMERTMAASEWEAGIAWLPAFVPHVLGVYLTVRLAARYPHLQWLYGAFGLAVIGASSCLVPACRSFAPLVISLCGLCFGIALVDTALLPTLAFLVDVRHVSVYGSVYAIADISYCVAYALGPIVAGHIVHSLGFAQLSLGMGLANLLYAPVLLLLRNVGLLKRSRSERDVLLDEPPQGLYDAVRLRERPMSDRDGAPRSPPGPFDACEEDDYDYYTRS
Experimental: To measure binding affinity, CHO-K1 cells recombinantly expressing the bovine VAChT was generated as a stable cell line and subsequently used to produce membrane preparations.
Radioligand binding assays were conducted in disposable polypropylene 96-well plates. VAChT competition assays were initiated by the addition of bovine recombinant membrane homogenate (50 μg/well) in assay buffer (50 mM Tris-HCl, 120 mM NaCl, 5 mM KCl, 1 mM MgCl, and 2 mM CaCl, pH 7.4) containing [^3H]Compound X6 (0.3 nM) with or without competing ligand. The assay was allowed to equilibrate for 120 minutes at room temperature, before being filtered onto GF/C unifilter plates pre-coated in 0.3% polyethylenimine (Perkin Elmer Life and Analytical Sciences, Boston, Mass.) with a Filtermate 96 harvester (PerkinElmer Life and Analytical Sciences). Filters were washed in ice-cold 50 mM Tris-HCl, pH 7.4 buffer and then counted for radioactivity in a TopCount microplate scintillation counter after addition of 50 μL Microscint 20 (PerkinElmer). Non-specific binding was measured in the presence of 10 μM Compound X6. Apparent dissociation constants (Ki values) from the competition experiments were calculated using an iterative nonlinear regression curve-fitting program (GraphPAD Prism 6.0 Software, San Diego, Calif.) and are reported in Table 2.

[4] = 96 h, read-out: HcL3 MEC, Minimal Effective Concentration whereby worm motility is inhibited by approximately 70%, 37° C., tested 0.001-100 μM
[5] = 72 h, read-out: Di MF, MEC, decrease in microfilariae motility by visual assessment, curve starting at 100 μM
[6] = 96 hours, 37° C., read-out: HcL3 MEC

## O=C(NCc1ccnc(Cl)c1)N1CC2(CCN(C/C=C/c3ccc(C(F)(F)F)cn3)CC2)c2cc(C(F)(F)F)ccc21 [Example 151, (E)-N-((2-chloropyridin-4-yl)methyl)-5-(trifluoromethyl)-1′-(3-(5-(trifluoromethyl)pyridin-2-yl)allyl)spiro[indoline-3,4′-piperidine]-1-carboxamide]
[1]; [4]
  minimal effective concentration: 5.7 µM
[2]; [5]
  minimal effective concentration: 4.3 µM
[3]
  Ki: 518 nM

## O=C(NCc1ccnc(Cl)c1)N1CC2(CCN(C/C=C/c3ccc(C(F)(F)F)cc3)CC2)c2c1cccc2C(F)(F)F [Example 152, (E)-N-((2-chloropyridin-4-yl)methyl)-4-(trifluoromethyl)-1′-(3-(4-(trifluoromethyl)phenyl)allyl)spiro[indoline-3,4′-piperidine]-1-carboxamide]
[1]; [4]
  minimal effective concentration: 5.7 µM
[2]; [5]
  minimal effective concentration: 4.4 µM
[3]
  Ki: 1320 nM

## O=C(NCc1ccnc(Cl)c1)N1CC2(CCN(C/C=C/c3ccc(F)cc3)CC2)c2c1cccc2C(F)(F)F [Example 153, (E)-N-((2-chloropyridin-4-yl)methyl)-1′-(3-(4-fluorophenyl)allyl)-4-(trifluoromethyl)spiro[indoline-3,4′-piperidine]-1-carboxamide]
[1]; [4]
  minimal effective concentration: 5.7 µM
[2]; [5]
  minimal effective concentration: 7.6 µM
[3]
  Ki: 218 nM

## O=C(NCc1ccnc(Cl)c1)N1CC2(CCN(C/C=C/c3ccc(F)cc3)CC2)c2cc(C(F)(F)F)ccc21 [Example 154, (E)-N-((2-chloropyridin-4-yl)methyl)-1′-(3-(4-fluorophenyl)allyl)-5-(trifluoromethyl)spiro[indoline-3,4′-piperidine]-1-carboxamide]
[1]; [6]
  minimal effective concentration: 6.6 µM
[2]; 72 hours, read-out: Di MF
  minimal effective concentration: 2.8 µM
[3]
  Ki: 283 nM

## Cc1c(F)ccc2c1C1(CCN(C/C=C/c3ccc(Cl)cc3)CC1)CN2C(=O)NCc1ccnc(Cl)c1 [Example 155, (E)-1′-(3-(4-chlorophenyl)allyl)-N-((2-chloropyridin-4-yl)methyl)-5-fluoro-4-methylspiro[indoline-3,4′-piperidine]-1-carboxamide]
[1]; [4]
  minimal effective concentration: 7.3 µM
[2]; [5]
  minimal effective concentration: 3.3 µM
[3]
  Ki: 74.8 nM

## O=C(NCc1ccnc(Cl)c1)N1CC2(CCN(C/C=C/c3ccc(Cl)cc3)CC2)c2c(Br)cccc21 [Example 156, (E)-4-bromo-1′-(3-(4-chlorophenyl)allyl)-N-((2-chloropyridin-4-yl)methyl)spiro[indoline-3,4′-piperidine]-1-carboxamide]
[1]; [4]
  minimal effective concentration: 7.8 µM
[2]; [5]
  minimal effective concentration: 5.7 µM
[3]
  Ki: 71.5 nM

## N#Cc1ccc(/C=C/CN2CCC3(CC2)CN(C(=O)NCc2ccnc(Cl)c2)c2ccc(F)c(Cl)c23)cc1 [Example 157, (E)-4-chloro-N-((2-chloropyridin-4-yl)methyl)-1′-(3-(4-cyanophenyl)allyl)-5-fluorospiro[indoline-3,4′-piperidine]-1-carboxamide]
[1]; [4]
  minimal effective concentration: 8.1 µM
[2]; [5]
  minimal effective concentration: 11 µM
[3]
  Ki: 22.7 nM

## O=C(NCc1ccnc(Cl)c1)N1CC2(CCN(C/C=C/c3ccc(F)cc3)CC2)c2c1ccc(F)c2Cl [Example 158, (E)-4-chloro-N-((2-chloropyridin-4-yl)methyl)-5-fluoro-1′-(3-(4-fluorophenyl)allyl)spiro[indoline-3,4′-piperidine]-1-carboxamide]
[1]; [6]
  minimal effective concentration: 9.9 µM
[2]; 72 hours, read-out: Di MF
  minimal effective concentration: 4.3 µM
[3]
  Ki: 54.8 nM

## O=C(NCc1ccnc(Cl)c1)N1CC2(CCN(C/C=C/c3ccc(Cl)cc3)CC2)c2c1ccc(OC(F)(F)F)c2Cl [Example 159, (E)-4-chloro-1′-(3-(4-chlorophenyl)allyl)-N-((2-chloropyridin-4-yl)methyl)-5-(trifluoromethoxy)spiro[indoline-3,4′-piperidine]-1-carboxamide]
[1]; [6]
  minimal effective concentration: 10 µM
[2]; 72 hours, read-out: Di MF
  minimal effective concentration: 24 µM
[3]
  Ki: 565 nM

## O=C(NCc1ccnc(Cl)c1)N1CC2(CCN(C/C=C/c3ccc(Cl)cc3)CC2)c2cc(C(F)(F)F)ccc21 [Example 160, (E)-1′-(3-(4-chlorophenyl)allyl)-N-((2-chloropyridin-4-yl)methyl)-5-(trifluoromethyl)spiro[indoline-3,4′-piperidine]-1-carboxamide]
[1]; [6]
  minimal effective concentration: 10 µM
[2]; 72 hours, read-out: Di MF
  minimal effective concentration: 10 µM
[3]
  Ki: 226 nM

## O=C(NCc1ccnc(Cl)c1)N1CC2(CCN(C/C=C/c3ccc(F)cc3)CC2)c2c(Cl)cc(Cl)cc21 [Example 161, (E)-4,6-dichloro-N-((2-chloropyridin-4-yl)methyl)-1′-(3-(4-fluorophenyl)allyl)spiro[indoline-3,4′-piperidine]-1-carboxamide]
[1]; [4]
  minimal effective concentration: 10 µM
[2]; [5]
  minimal effective concentration: 10 µM
[3]
  Ki: 259 nM

## CS(=O)(=O)c1ccc2c(c1)N(C(=O)NCc1ccnc(Cl)c1)CC21CCN(C/C=C/c2ccc(Cl)cc2)CC1 [Example 162, (E)-1′-(3-(4-chlorophenyl)allyl)-N-((2-chloropyridin-4-yl)methyl)-6-(methylsulfonyl)spiro[indoline-3,4′-piperidine]-1-carboxamide]
[1]; [4]
  minimal effective concentration: 10 µM
[2]; [5]
  minimal effective concentration: 10 µM
[3]
  Ki: 23.4 nM

## O=C(NCc1ccnc(Cl)c1)N1CC2(CCN(C/C=C/c3ccc(F)cc3)CC2)c2cc(OC(F)(F)F)ccc21 [Example 163, (E)-N-((2-chloropyridin-4-yl)methyl)-1′-(3-(4-fluorophenyl)allyl)-5-(trifluoromethoxy)spiro[indoline-3,4′-piperidine]-1-carboxamide]
[1]; [6]
  minimal effective concentration: 10.1 µM
[2]; 72 hours, read-out: Di MF
  minimal effective concentration: 2.5 µM
[3]
  Ki: 554 nM

## O=C(NCc1ccnc(Cl)c1)N1CC2(CCN(C/C=C/c3ccc(C(F)(F)F)cc3)CC2)c2c1ccc(F)c2Cl [Example 164, (E)-4-chloro-N-((2-chloropyridin-4-yl)methyl)-5-fluoro-1′-(3-(4-(trifluoromethyl)phenyl)allyl)spiro[indoline-3,4′-piperidine]-1-carboxamide]
[1]; [4]
  minimal effective concentration: 12.4 µM
[2]; [5]
  minimal effective concentration: 5.3 µM
[3]
  Ki: 311 nM

## N#Cc1cccc2c1C1(CCN(C/C=C/c3ccc(Cl)cc3)CC1)CN2C(=O)NCc1ccnc(Cl)c1 [Example 165, (E)-1′-(3-(4-chlorophenyl)allyl)-N-((2-chloropyridin-4-yl)methyl)-4-cyanospiro[indoline-3,4′-piperidine]-1-carboxamide]
[1]; [4]
  minimal effective concentration: 16.7 µM
[2]; [5]
  minimal effective concentration: 8.3 µM
[3]
  Ki: 38.4 nM

## N#Cc1c(F)ccc2c1C1(CCN(C/C=C/c3ccc(Cl)cc3)CC1)CN2C(=O)NCc1ccnc(Cl)c1 [Example 166, (E)-1′-(3-(4-chlorophenyl)allyl)-N-((2-chloropyridin-4-yl)methyl)-4-cyano-5-fluorospiro[indoline-3,4′-piperidine]-1-carboxamide]
[1]; [4]
  minimal effective concentration: 23.5 µM
[2]; [5]
  minimal effective concentration: 1.5 µM
[3]
  Ki: 43.5 nM

## COc1ccc2c(c1)C1(CCN(C/C=C/c3ccc(Cl)c(Cl)c3)CC1)CN2C(=O)NCc1ccnc(Cl)c1 [Example 167, (E)-N-((2-chloropyridin-4-yl)methyl)-1′-(3-(3,4-dichlorophenyl)allyl)-5-methoxyspiro[indoline-3,4′-piperidine]-1-carboxamide]
[1]; [6]
  minimal effective concentration: 6.9 µM
[2]; 72 hours, read-out: Di MF
  minimal effective concentration: 33 µM
[3]
  Ki: 184 nM

## COc1ccc(/C=C/CN2CCC3(CC2)CN(C(=O)NCc2ccnc(Cl)c2)c2ccc(C(F)(F)F)cc23)cc1 [Example 168, (E)-N-((2-chloropyridin-4-yl)methyl)-1′-(3-(4-methoxyphenyl)allyl)-5-(trifluoromethyl)spiro[indoline-3,4′-piperidine]-1-carboxamide]
[1]; [6]
  minimal effective concentration: 33 µM
[2]; 72 hours, read-out: Di MF
  minimal effective concentration: 3.3 µM
[3]
  Ki: 266 nM

## O=C(NCc1ccnc(Cl)c1)N1CC2(CCN(C/C=C/c3ccc(Cl)cc3)CC2)c2cc(S(F)(F)(F)(F)F)ccc21 [Example 169, (E)-1′-(3-(4-chlorophenyl)allyl)-N-((2-chloropyridin-4-yl)methyl)-5-(pentafluorosulfide)spiro[indoline-3,4′-piperidine]-1-carboxamide]
[1]; [4]
  minimal effective concentration: 47.8 µM
[2]; [5]
  minimal effective concentration: 3.3 µM
[3]
  Ki: 467 nM

## O=C(NCc1ccnc(Cl)c1)N1CC2(CCN(C/C=C/c3ccc(C(F)(F)F)cc3)CC2)c2cc(C(F)(F)F)ccc21 [Example 170, (E)-N-((2-chloropyridin-4-yl)methyl)-5-(trifluoromethyl)-1′-(3-(4-(trifluoromethyl)phenyl)allyl)spiro[indoline-3,4′-piperidine]-1-carboxamide]
[1]; [4]
  minimal effective concentration: 57.4 µM
[2]; [5]
  minimal effective concentration: 5.7 µM
[3]
  Ki: 716 nM

## O=C(NCc1ccnc(Cl)c1)N1CC2(CCN(C/C=C/c3ccc(Cl)c(Cl)c3)CC2)c2cc(Cl)cc(Cl)c21 [Example 171, (E)-5,7-dichloro-N-((2-chloropyridin-4-yl)methyl)-1′-(3-(3,4-dichlorophenyl)allyl)spiro[indoline-3,4′-piperidine]-1-carboxamide]
[1]; [6]
  minimal effective concentration: 69.1 µM
[2]; 72 hours, read-out: Di MF
  minimal effective concentration: 7.6 µM
[3]
  Ki: 20.9 nM
